Here are results for 32 compounds from patent US9511073B2, “Aromatic amides and uses thereof” (TAXIS Pharmaceuticals, Inc., priority 2011, dated 2016).

Structures are written as SMILES. ≈ marks a conversion by molar mass, not a printed value. Some results are limits rather than exact numbers.

This assay deals with Staphylococcus aureus (Isolate ID ATCC 29213). Put plainly: Bacterial assay: MIC by broth microdilution or agar dilution (CLSI), S. aureus ATCC 29213. Format: cell-based. The following applies: Staphylococcus aureus, ATCC29213, read-out: S. aureus MIC (μg/mL) Activity Range, S. aureus (ATCC29213). The method, boiled down: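 MICs by CLSI broth microdilution or agar dilution against S. aureus ATCC 29213 and its FtsZ-G196A mutant. Values reported as ranges: A ≤0.25 μg/mL, B >0.25–1.0, C >1.0–16, D >16 μg/mL.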
Take `C=CCCC(Oc1ccc(F)c(C(N)=O)c1F)c1nc(-c2ccc(C(F)(F)F)cc2)c(Br)o1` (centres unmarked) [Compound 124, 3-((1-(5-bromo-4-(4-(trifluoromethyl)phenyl)oxazol-2-yl)pent-4-en-1-yl)oxy)-2,6-difluorobenzamide]: the MIC is 1 to 16 µg/mL (≈ 1.88 to 30.1 µM). In the case of `NC(=O)c1c(F)ccc(OC(CO)c2nc(-c3ccc(Cl)cc3F)c(Br)o2)c1F` (centres unmarked) [Compound 235, 3-(1-(5-bromo-4-(4-chloro-2-fluorophenyl)oxazol-2-yl)-2-hydroxyethoxy)-2,6-difluorobenzamide], the MIC is less than 0.25 µg/mL. With `NC(=O)c1c(F)ccc(OC(CO)c2nc(-c3ccc(C(F)(F)F)cc3)c(Cl)o2)c1F` (centres unmarked) [Compound 44, 3-(1-(5-chloro-4-(4-(trifluoromethyl)phenyl)oxazol-2-yl)-2-hydroxyethoxy)-2,6-difluorobenzamide], the MIC is 0.25 to 1 µg/mL (≈ 0.54 to 2.16 µM). As to `N#Cc1ccc(-c2nc(C(CO)Oc3ccc(F)c(C(N)=O)c3F)oc2Br)cc1` (centres unmarked) [Compound 80, 3-(1-(5-bromo-4-(4-cyanophenyl)oxazol-2-yl)-2-hydroxyethoxy)-2,6-difluorobenzamide], the MIC is 1 to 16 µg/mL (≈ 2.15 to 34.5 µM).

Consider `C[C@@H](O)[C@@H](Oc1ccc(F)c(C(N)=O)c1F)c1nc(-c2ccc(OC(F)F)cc2)c(Br)o1` [Compound 297, 3-((1R,2R)-1-(5-bromo-4-(4-(difluoromethoxy)phenyl)oxazol-2-yl)-2-hydroxypropoxy)-2,6-difluorobenzamide], for which the MIC is less than 0.25 µg/mL. Take `CN(C)C(=O)CC(Oc1ccc(F)c(C(N)=O)c1F)c1nc(-c2ccc(C(F)(F)F)cc2)c(Br)o1` (centres unmarked) [Compound 88, 3-(1-(5-bromo-4-(4-(trifluoromethyl)phenyl)oxazol-2-yl)-3-(dimethylamino)-3-oxopropoxy)-2,6-difluorobenzamide]: the MIC fell in the range of 1 to 16 µg/mL (≈ 1.78 to 28.5 µM). Then `CCOc1cnc2sc(C(C)Oc3ccc(F)c(C(N)=O)c3F)nc2c1` (centres unmarked) [Compound 29, 3-(1-(6-ethoxythiazolo[5,4-b]pyridin-2-yl)ethoxy)-2,6-difluorobenzamide], with 1 to 16 µg/mL (≈ 2.64 to 42.2 µM); and `CC(Oc1ccc(F)c(C(N)=O)c1F)c1nc(-c2ccc(C(F)(F)F)nc2)c(Cl)o1` (centres unmarked) [Compound 50], with 1 to 16 µg/mL (≈ 2.23 to 35.7 µM). Then `CCOC(=O)C(Oc1ccc(F)c(C(N)=O)c1F)c1nc(C2CCOCC2)co1` (centres unmarked) [Compound 180, ethyl 2-(3-carbamoyl-2,4-difluorophenoxy)-2-(4-(tetrahydro-2H-pyran-4-yl)oxazol-2-yl)acetate], with more than 16 µg/mL; and `COc1ncccc1CNC(=O)OCC(Oc1ccc(F)c(C(N)=O)c1F)c1nc(-c2ccc(C(F)(F)F)cc2)c(Br)o1` (centres unmarked) [Compound 196, 2-(5-bromo-4-(4-(trifluoromethyl)phenyl)oxazol-2-yl)-2-(3-carbamoyl-2,4-difluorophenoxy)ethyl ((2-methoxypyridin-3-yl)methyl)carbamate], with less than 0.25 µg/mL. As to `CN(CC(=O)OCC(Oc1ccc(F)c(C(N)=O)c1F)c1nc(-c2ccc(C(F)(F)F)cc2)c(Br)o1)C(=O)OC(C)(C)C` (centres unmarked) [Compound 61, 2-(5-bromo-4-(4-(trifluoromethyl)phenyl)oxazol-2-yl)-2-(3-carbamoyl-2,4-difluorophenoxy)ethyl 2-((tert-butoxycarbonyl)(methyl)amino)acetate], the MIC was in the range of 0.25 to 1 µg/mL (≈ 0.369 to 1.47 µM). The value for `Cc1nc(-c2ccc(-c3nc(C(CO)Oc4ccc(F)c(C(N)=O)c4F)oc3Br)cc2)no1` (centres unmarked) [Compound 83, 3-(1-(5-bromo-4-(4-(5-methyl-1,2,4-oxadiazol-3-yl)phenyl)oxazol-2-yl)-2-hydroxyethoxy)-2,6-difluorobenzamide] was 1 to 16 µg/mL (≈ 1.92 to 30.7 µM); that for `C=CCc1oc(C(COC(C)=O)Oc2ccc(F)c(C(N)=O)c2F)nc1-c1ccc(C(F)(F)F)cc1` (centres unmarked) [Compound 63, 2-(5-allyl-4-(4-(trifluoromethyl)phenyl)oxazol-2-yl)-2-(3-carbamoyl-2,4-difluorophenoxy)ethyl acetate] was 1 to 16 µg/mL. For `COCC(Oc1ccc(F)c(C(N)=O)c1F)c1nc(-c2ccc(C(F)(F)F)cc2)c(Br)o1` (centres unmarked) [Compound 103, 3-(1-(5-bromo-4-(4-(trifluoromethyl)phenyl)oxazol-2-yl)-2-methoxyethoxy)-2,6-difluorobenzamide], the MIC was in the range of 0.25 to 1 µg/mL (≈ 0.48 to 1.92 µM). Consider `CN(Cc1cnccn1)C(=O)OCC(Oc1ccc(F)c(C(N)=O)c1F)c1nc(-c2ccc(C(F)(F)F)cc2)c(Br)o1` (centres unmarked) [Compound 192, 2-(5-bromo-4-(4-(trifluoromethyl)phenyl)oxazol-2-yl)-2-(3-carbamoyl-2,4-difluorophenoxy)ethyl methyl(pyrazin-2-ylmethyl)carbamate], for which the MIC was in the range of 0.25 to 1 µg/mL (≈ 0.381 to 1.52 µM). `NC(=O)c1c(F)ccc(OC(C(=O)O)c2csc(-c3ccc(C(F)(F)F)cc3)n2)c1F` (centres unmarked) [Compound 127, 2-(3-carbamoyl-2,4-difluorophenoxy)-2-(2-(4-(trifluoromethyl)phenyl)thiazol-4-yl)acetic acid]: the MIC was more than 16 µg/mL.

As to `CC(=O)OCC(Oc1ccc(F)c(C(N)=O)c1F)c1nc(-c2ccc(C(F)(F)F)cc2)c(Cl)o1` (centres unmarked) [Compound 42, 2-(3-carbamoyl-2,4-difluorophenoxy)-2-(5-chloro-4-(4-(trifluoromethyl)phenyl)oxazol-2-yl)ethyl acetate], the MIC lay within 0.25 to 1 µg/mL. Then `CCOC(=O)CNC(=O)OCC(Oc1ccc(F)c(C(N)=O)c1F)c1nc(-c2ccc(C(F)(F)F)cc2)c(Br)o1` (centres unmarked) [Compound 140, ethyl 2-(((2-(5-bromo-4-(4-(trifluoromethyl)phenyl)oxazol-2-yl)-2-(3-carbamoyl-2,4-difluorophenoxy)ethoxy)carbonyl)amino)acetate], with 0.25 to 1 µg/mL (≈ 0.393 to 1.57 µM); and `NC(=O)c1c(F)ccc(OC(COC(=O)NCCO)c2nc(-c3ccc(C(F)(F)F)cc3)c(Br)o2)c1F` (centres unmarked) [Compound 163, 2-(5-bromo-4-(4-(trifluoromethyl)phenyl)oxazol-2-yl)-2-(3-carbamoyl-2,4-difluorophenoxy)ethyl (2-hydroxyethyl)carbamate], with 0.25 to 1 µg/mL (≈ 0.421 to 1.68 µM). For the compound `C=CCOC(=O)CCC(=O)OCC(Oc1ccc(F)c(C(N)=O)c1F)c1nc(-c2ccc(C(F)(F)F)cc2)c(Br)o1` (centres unmarked) [Compound 70, allyl (2-(5-bromo-4-(4-(trifluoromethyl)phenyl)oxazol-2-yl)-2-(3-carbamoyl-2,4-difluorophenoxy)ethyl) succinate], the MIC lay within 0.25 to 1 µg/mL. Turning to `CS(=O)(=O)NCC(Oc1ccc(F)c(C(N)=O)c1F)c1nc(-c2ccc(C(F)(F)F)cc2)c(Br)o1` (centres unmarked) [Compound 285, 3-(1-(5-bromo-4-(4-(trifluoromethyl)phenyl)oxazol-2-yl)-2-(methylsulfonamido)ethoxy)-2,6-difluorobenzamide], the MIC lay in the range of 1 to 16 µg/mL (≈ 1.71 to 27.4 µM). Regarding `NC(=O)c1c(F)ccc(O[C@H](CO)c2nc(-c3ccc(OC(F)F)cc3)co2)c1F` [Compound 274B, (R)-3-(1-(4-(4-(difluoromethoxy)phenyl)oxazol-2-yl)-2-hydroxyethoxy)-2,6-difluorobenzamide], the MIC fell in the range of 1 to 16 µg/mL (≈ 2.35 to 37.5 µM). For `NC(=O)c1c(F)ccc(OC(CO)c2nc(-c3ccc(O)cc3)c(Br)o2)c1F` (centres unmarked) [Compound 110, 3-(1-(5-bromo-4-(4-hydroxyphenyl)oxazol-2-yl)-2-hydroxyethoxy)-2,6-difluorobenzamide], the MIC is more than 16 µg/mL. Regarding `NC(=O)c1c(F)ccc(OC(CO)c2nc(-c3ccc(Cl)cc3)co2)c1F` (centres unmarked) [Compound 10, 3-(1-(4-(4-chlorophenyl)oxazol-2-yl)-2-hydroxyethoxy)-2,6-difluorobenzamide], the MIC is more than 16 µg/mL.

Regarding `CNC(=O)OCC(Oc1ccc(F)c(C(N)=O)c1F)c1nc(-c2ccc(C(F)(F)F)cc2)c(Br)o1` (centres unmarked) [Compound 113, 2-(5-bromo-4-(4-(trifluoromethyl)phenyl)oxazol-2-yl)-2-(3-carbamoyl-2,4-difluorophenoxy)ethyl methylcarbamate], the MIC lay in the range of 0.25 to 1 µg/mL (≈ 0.443 to 1.77 µM).

For `NC(=O)c1c(F)ccc(OC(CNC(=O)OCc2ccccc2)c2nc(-c3ccc(C(F)(F)F)cc3)c(Br)o2)c1F` (centres unmarked) [Compound 280, benzyl (2-(5-bromo-4-(4-(trifluoromethyl)phenyl)oxazol-2-yl)-2-(3-carbamoyl-2,4-difluorophenoxy)ethyl)carbamate], the MIC fell in the range of 0.25 to 1 µg/mL (≈ 0.39 to 1.56 µM). Then `NC(=O)c1c(F)ccc(OC(COC(=O)NCc2ccncc2)c2nc(-c3ccc(C(F)(F)F)cc3)c(Br)o2)c1F` (centres unmarked) [Compound 167, 2-(5-bromo-4-(4-(trifluoromethyl)phenyl)oxazol-2-yl)-2-(3-carbamoyl-2,4-difluorophenoxy)ethyl (pyridin-4-ylmethyl)carbamate], with less than 0.25 µg/mL.

Turning to `CCCc1oc(C(CO)Oc2ccc(F)c(C(N)=O)c2F)nc1-c1ccc(C(F)(F)F)cc1` (centres unmarked) [Compound 67, 2,6-difluoro-3-(2-hydroxy-1-(5-propyl-4-(4-(trifluoromethyl)phenyl)oxazol-2-yl)ethoxy)benzamide], the MIC fell in the range of 1 to 16 µg/mL (≈ 2.13 to 34 µM). For the compound `CCNC(=O)NCC(Oc1ccc(F)c(C(N)=O)c1F)c1nc(-c2ccc(C(F)(F)F)cc2)c(Br)o1` (centres unmarked) [Compound 291, 3-(1-(5-bromo-4-(4-(trifluoromethyl)phenyl)oxazol-2-yl)-2-(3-ethylureido)ethoxy)-2,6-difluorobenzamide], the MIC is less than 0.25 µg/mL.

Regarding `NC(=O)c1c(F)ccc(O[C@H](CO)c2nc(-c3ccc(C(F)(F)F)cc3)co2)c1F` [Compound 272B, (R)-2,6-difluoro-3-(2-hydroxy-1-(4-(4-(trifluoromethyl)phenyl)oxazol-2-yl)ethoxy)benzamide], the MIC fell in the range of 1 to 16 µg/mL (≈ 2.33 to 37.4 µM). Regarding `CC(=O)NNC(=O)CCC(Oc1ccc(F)c(C(N)=O)c1F)c1nc(-c2ccc(C(F)(F)F)cc2)c(Br)o1` (centres unmarked) [Compound 92, 3-(4-(2-acetylhydrazinyl)-1-(5-bromo-4-(4-(trifluoromethyl)phenyl)oxazol-2-yl)-4-oxobutoxy)-2,6-difluorobenzamide], the MIC was in the range of 1 to 16 µg/mL (≈ 1.65 to 26.4 µM). Take `NC(=O)c1c(F)ccc(O[C@H](CO)c2nc(-c3ccc4c(c3)CCO4)c(Br)o2)c1F` [Compound 253B, (R)-3-(1-(5-bromo-4-(2,3-dihydrobenzofuran-5-yl)oxazol-2-yl)-2-hydroxyethoxy)-2,6-difluorobenzamide]: the MIC lay in the range of 1 to 16 µg/mL (≈ 2.08 to 33.2 µM).
